Laboratory results: patent US11634417B2 (Array BioPharma Inc., priority 2019, dated 2023)
Where a name gives a salt, the structure may show the parent alone.

Columns and labels:
full-length SHP2 = target: T1, full-length SHP2 (Homo sapiens, UniProt Q06124); test: SHP2 enzymatic assay (fluorescence intensity kinetic assay, DiFMUP hydrolysis); format: biochemical; settings: 1 nM His6-tagged SHP2(2-527), 1 μM activating peptide, 50 μM DiFMUP; single assay or mean of multiple assays; read-out: Biological Example 1 IC50
T1 construct: 1 nM full-length SHP2 (His6-tagged SHP2(2-527), recombinantly expressed in E. coli and purified in-house); His6; made in house; host or cells: E. coli
T1 sequence (Q06124 2-527): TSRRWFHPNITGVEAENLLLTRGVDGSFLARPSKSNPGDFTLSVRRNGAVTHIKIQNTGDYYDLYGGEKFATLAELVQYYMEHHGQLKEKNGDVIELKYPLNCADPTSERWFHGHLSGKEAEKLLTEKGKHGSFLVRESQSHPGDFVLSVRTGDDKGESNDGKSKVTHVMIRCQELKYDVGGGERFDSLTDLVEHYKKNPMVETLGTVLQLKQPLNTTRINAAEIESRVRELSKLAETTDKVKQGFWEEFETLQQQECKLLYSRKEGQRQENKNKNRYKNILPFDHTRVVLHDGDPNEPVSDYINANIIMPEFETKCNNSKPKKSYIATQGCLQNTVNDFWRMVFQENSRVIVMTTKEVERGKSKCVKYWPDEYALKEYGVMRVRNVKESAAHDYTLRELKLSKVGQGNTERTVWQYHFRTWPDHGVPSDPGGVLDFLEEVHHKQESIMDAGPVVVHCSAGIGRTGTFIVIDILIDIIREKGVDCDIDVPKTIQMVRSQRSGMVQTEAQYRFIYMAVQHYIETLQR
Experimental: A fluorescence intensity kinetic assay was configured for full-length SHP2 that monitors the amount of 6,8-difluoro-7-hydroxy-4-methylcoumarin (“DiFMU”) formed upon hydrolysis of 6,8-difluoro-4-methylumbelliferyl phosphate (“DiFMUP”) by SHP2. […] Low control wells lacked enzyme. The assays were initiated by the addition of a mixture of SHP2 and the activating peptide, and following a 15 second mix on an orbital shaker, were read in kinetic mode for 15 minutes (30 seconds/cycle) at ambient temperature on a PerkinElmer EnVision microplate reader (kEx=355 nm, kEm=460 nm). Initial velocities (slopes of the tangents at t=0) were estimated from exponential fits to the slightly nonlinear progress curves and then were converted to percent of control (“POC”) using the following equation:
[formula] • Where: xmax Average Uninhibited Controls • Xmin Average Background A 4-parameter logistic model was the fit to the POC data for each compound. From that fit, the IC50 was estimated and is defined as the concentration of compound at which the curve crosses 50 POC.

[1] = tested on: ERK1/2 (Thr202/Tyr204) phosphorylation in KYSE520 cells; test: Cellular Phospho-p44/42 MAPK (Erk1/2) (Thr202/Tyr204) assay, In-Cell Western; format: cell-based; settings: Homo sapiens, KYSE-520; KYSE520 cells, 1 hour incubation, pERK signal normalized to GAPDH; single assay or mean of multiple assays; read-out: Biological Example 2 IC50
Experimental: Inhibition of ERK1/2 (Thr202/Tyr204) phosphorylation was determined by the following cellular assay, which comprises incubating cells with a compound for 1 hour and quantifying pERK signal by In-Cell Western on fixed cells and normalizing to GAPDH signal. KYSE520 cells were obtained from DSMZ and grown in RPMI supplemented with 10% fetal bovine serum, penicillin/streptomycin, 2 mM L-alanyl-L-glutamine dipeptide in 0.85% NaCl (Glutamax™), non-essential amino acids, and sodium pyruvate. Cells were plated in 96-well plates at 30,000 cells/well and allowed to attach overnight at 37° C./5% CO2. Cells were treated with compounds prepared as a 10-point, 1:3 dilution series (range: 20 μM-1 nM), with a final DMSO concentration of 0.5%. After 1 hour incubation, cells were fixed in 3.7% formaldehyde in Dulbecco's phosphate-buffered saline (“dPBS”) at room temperature for 20 minutes. Cells were then washed with dPBS and permeabilized in 100% MeOH at room temperature for 10 minutes. Following permeabilization, cells were washed in dPBS and incubated in LI-COR Blocking Buffer (LI-COR Biosciences, Cat #927-40000) for 1 hour or longer. Plates were then incubated with an antibody specific for the MEK-dependent ERK1/2 phosphorylation sites, threonine 202 and tyrosine 204 (Cell Signaling Technologies; Cat #9101), downstream of SHP2 in the MAP kinase signal transduction pathway, as well as GAPDH (Millipore; Cat #MAB374). pErk1/2 (Thr202/Tyr204) antibody was diluted in LI-COR blocking buffer containing 0.05% polysorbate-20 (Tween-20) at 1:250; GAPDH was diluted at 1:2,500. The plates were incubated overnight at 4° C. After washing with PBS/0.05% Tween-20, the cells were incubated with fluorescently-labeled secondary antibodies (Anti-rabbit-Alexa Flour680, Invitrogen Cat #A21109; Anti-mouse-IRDye800CW, Li-cor Bioscieces Cat #926-32210, both at 1:1000 dilution) for 1 hour. Cells were then washed, as above, and analyzed for fluorescence at both 680 nm and 800 nm wavelengths using the Aerius Infrared Imaging System (LI-COR Biosciences, Model 9250). Phosphorylated Erk1/2 ([…]) signal was normalized to GAPDH signal for each well. IC50 values were calculated from the normalized values using a 4-parameter fit in BioAssay software. The reported IC50 in Table 2 may be from a single assay or the mean of multiple assays.

Compound	IC50 (full-length SHP2) [nM]	IC50 [1] [nM]
C[C@@H]1OCC2(CCN(c3ncc(Sc4c(Cl)cnc5[nH]ccc45)nn3)CC2)[C@@H]1N [Example 9, (3S,4S)-8-(6-((5-chloro-1H-pyrrolo[2,3-b]pyridin-4-yl)thio)-1,2,4-triazin-3-yl)-3-methyl-2-oxa-8-azaspiro[4.5]decan-4-amine]	358	699
CC1(N)CCCN(c2ncc(Sc3ccnc(N)c3Cl)nn2)CC1 (stereo not drawn) [Example 10, 1-(6-((2-amino-3-chloropyridin-4-yl)thio)-1,2,4-triazin-3-yl)-4-methylazepan-4-amine]	551	687
CC1(N)CCCN(c2ncc(Sc3cccc(Cl)c3Cl)nn2)CC1 (stereo not drawn) [Example 11, 1-(6-((2,3-dichlorophenyl)thio)-1,2,4-triazin-3-yl)-4-methylazepan-4-amine]	210	1970
NC1C[C@@H]2CC[C@@H](C1)N2c1ncc(Sc2cccc(Cl)c2Cl)nn1 (stereo partly drawn) [Example 12, (1R,3s,5S)-8-(6-((2,3-dichlorophenyl)thio)-1,2,4-triazin-3-yl)-8-azabicyclo[3.2.1]octan-3-amine]	174	1110
Cc1nc(N2CCC3(CC2)CO[C@@H](C)[C@H]3N)nnc1Sc1cccc(Cl)c1Cl [Example 13, (3S,4S)-8-(6-((2,3-dichlorophenyl)thio)-5-methyl-1,2,4-triazin-3-yl)-3-methyl-2-oxa-8-azaspiro[4.5]decan-4-amine]	141	1030
Cc1nccc(Sc2cnc(N3CCC4(CC3)CO[C@@H](C)[C@H]4N)nn2)c1Cl [Example 14, (3S,4S)-8-(6-((3-chloro-2-methylpyridin-4-yl)thio)-1,2,4-triazin-3-yl)-3-methyl-2-oxa-8-azaspiro[4.5]decan-4-amine]	53	61
Nc1nccc(Sc2cnc(N3CCC4(CC3)Cc3ncccc3[C@@H]4N)nn2)c1Cl [Example 16, (R)-1′-(6-((2-amino-3-chloropyridin-4-yl)thio)-1,2,4-triazin-3-yl)-5,7-dihydrospiro[cyclopenta[b]pyridine-6,4′-piperidin]-5-amine trihydrochloride]	175	49
Nc1nccc(Sc2cnc(N3CCC4(CC3)Cc3cc(Cl)ccc3[C@H]4N)nn2)c1Cl [Example 17, (S)-1′-(6-((2-amino-3-chloropyridin-4-yl)thio)-1,2,4-triazin-3-yl)-5-chloro-1,3-dihydrospiro[indene-2,4′-piperidin]-1-amine]	25	9
Nc1cc(Sc2cnc(N3CCC4(CC3)Cc3ccccc3[C@H]4N)nn2)c(Cl)cn1 [Example 18, (S)-1′-(6-((2-amino-5-chloropyridin-4-yl)thio)-1,2,4-triazin-3-yl)-1,3-dihydrospiro[indene-2,4′-piperidin]-1-amine]	15	8
Nc1nccc(Sc2cnc(N3CCC4(CC3)Cc3ccccc3[C@H]4N)nn2)c1C1CC1 [Example 19, (S)-1′-(6-((2-amino-3-cyclopropylpyridin-4-yl)thio)-1,2,4-triazin-3-yl)-1,3-dihydrospiro[indene-2,4′-piperidin]-1-amine]	44	208
Nc1ccc(Oc2cnc(N3CCC4(CC3)Cc3ccccc3[C@H]4N)nn2)cn1 [Example 22, (S)-1′-(6-((6-aminopyridin-3-yl)oxy)-1,2,4-triazin-3-yl)-1,3-dihydrospiro[indene-2,4′-piperidin]-1-amine]	32	17
Nc1nccc(Sc2cnc(N3CCC4(CC3)Oc3ccccc3[C@H]4N)nn2)c1Cl [Example 23, (R)-1′-(6-((2-amino-3-chloropyridin-4-yl)thio)-1,2,4-triazin-3-yl)-3H-spiro[benzofuran-2,4′-piperidin]-3-amine]	35	12
Nc1nccc(Sc2cnc(N3CCC4(CC3)Cc3ncccc3[C@H]4N)nn2)c1Cl [Example 24, (S)-1′-(6-((2-amino-3-chloropyridin-4-yl)thio)-1,2,4-triazin-3-yl)-5,7-dihydrospiro[cyclopenta[b]pyridine-6,4′-piperidin]-5-amine]	47	5
N[C@@H]1c2ccccc2CC12CCN(c1ncc(Sc3ccnc4c3C(F)(F)C(=O)N4)nn1)CC2 [Example 25, (S)-4-((3-(1-amino-1,3-dihydrospiro[indene-2,4′-piperidin]-1′-yl)-1,2,4-triazin-6-yl)thio)-3,3-difluoro-1,3-dihydro-2H-pyrrolo[2,3-b]pyridin-2-one]	26	2
N[C@@H]1c2ccccc2CC12CCN(c1ncc(Sc3c[nH]c4ncccc34)nn1)CC2 [Example 26, (S)-1′-(6-((1H-pyrrolo[2,3-b]pyridin-3-yl)thio)-1,2,4-triazin-3-yl)-1,3-dihydrospiro[indene-2,4′-piperidin]-1-amine]	49	120
N[C@@H]1c2ccccc2CC12CCN(c1ncc(Sc3n[nH]c4ncccc34)nn1)CC2 [Example 27, (S)-1′-(6-((1H-pyrazolo[3,4-b]pyridin-3-yl)thio)-1,2,4-triazin-3-yl)-1,3-dihydrospiro[indene-2,4′-piperidin]-1-amine]	17	11
N[C@@H]1c2ccccc2CC12CCN(c1ncc(Oc3cccc4cnccc34)nn1)CC2 [Example 28, (S)-1′-(6-(isoquinolin-5-yloxy)-1,2,4-triazin-3-yl)-1,3-dihydrospiro[indene-2,4′-piperidin]-1-amine]	879	1140
C[C@@H]1OCC2(CCN(c3ncc(Sc4ccnc5c4ccn5C)nn3)CC2)[C@@H]1N [Example 29, (3S,4S)-3-methyl-8-(6-((1-methyl-1H-pyrrolo[2,3-b]pyridin-4-yl)thio)-1,2,4-triazin-3-yl)-2-oxa-8-azaspiro[4.5]decan-4-amine]	96	206
N[C@@H]1c2ccccc2CC12CCN(c1ncc(Sc3ccnc4[nH]ccc34)nn1)CC2 [Example 30, (S)-1′-(6-((1H-pyrrolo[2,3-b]pyridin-4-yl)thio)-1,2,4-triazin-3-yl)-1,3-dihydrospiro[indene-2,4′-piperidin]-1-amine]	22	2
N[C@@H]1c2ccccc2CC12CCN(c1ncc(-c3ccccc3Cl)nn1)CC2 [Example 31, (S)-1′-(6-(2-chlorophenyl)-1,2,4-triazin-3-yl)-1,3-dihydrospiro[indene-2,4′-piperidin]-1-amine]	23	424
N[C@@H]1c2ccccc2CC12CCN(c1ncc(Sc3ccccc3)nn1)CC2 [Example 32, (S)-1′-(6-(phenylthio)-1,2,4-triazin-3-yl)-1,3-dihydrospiro[indene-2,4′-piperidin]-1-amine]	5	14
